Results: ChEMBL document CHEMBL3352214, “Studies on indolizines. Evaluation of their biological properties as microtubule-interacting agents and as melanoma targeting compounds” (Eur J Med Chem, 2015)

Experiments:
Ovis aries = species on record: Ovis aries; assay: Inhibition of sheep brain tubulin polymerization at 100 uM by fluorescence assay
[1] = Inhibition of sheep brain tubulin polymerization by fluorescence assay; set-up: species or system Ovis aries
HL-60(TB) [2] = assay: Growth inhibition of human HL-60(TB) cells after 48 hrs by SRB assay; format: functional; conditions: HL-60, 48 h
K562 = assay: Growth inhibition of human K562 cells after 48 hrs by SRB assay; format: functional; conditions: K562, 48 h
SR = assay: Growth inhibition of human SR cells after 48 hrs by SRB assay; format: functional
NCI-H522 [3] = assay: Growth inhibition of human NCI-H522 cells after 48 hrs by SRB assay; format: functional; conditions: NCI-H522, 48 h
[4] = Growth inhibition of human COLO205 cells after 48 hrs by SRB assay; format: functional; conditions: COLO 205, 48 h
KM12 = assay: Growth inhibition of human KM12 cells after 48 hrs by SRB assay; format: functional; conditions: KM12, 48 h
HT-29 = assay: Growth inhibition of human HT-29 cells after 48 hrs by SRB assay; format: functional; conditions: HT-29, 48 h
MDA-MB-435 [5] = assay: Growth inhibition of human MDA-MB-435 cells after 48 hrs by SRB assay; format: functional; conditions: MDA-MB-435, 48 h
SK-MEL-5 = assay: Growth inhibition of human SK-MEL-5 cells after 48 hrs by SRB assay; format: functional; conditions: SK-MEL-5, 48 h
[6] = Growth inhibition of human OVCAR3 cells after 48 hrs by SRB assay; format: functional; conditions: OVCAR-3, 48 h
NCI/ADR-RES = assay: Growth inhibition of human NCI/ADR-RES cells after 48 hrs by SRB assay; format: functional
A498 [7] = assay: Growth inhibition of human A498 cells after 48 hrs by SRB assay; format: functional; conditions: A498, 48 h
[8] = Growth inhibition of human PC3 cells after 48 hrs by SRB assay; format: functional; conditions: PC-3, 48 h
SNB-75 [9] = assay: Growth inhibition of human SNB75 cells after 48 hrs by SRB assay; format: functional; conditions: SNB-75, 48 h
MDA-MB-468 = assay: Growth inhibition of human MDA-MB-468 cells after 48 hrs by SRB assay; format: functional; conditions: MDA-MB-468, 48 h
MCF7 [10] = assay: Growth inhibition of human MCF7 cells after 48 hrs by SRB assay; format: functional; conditions: MCF7, 48 h
[11] = Growth inhibition of human MOLT4 cells at 10^-5 M after 48 hrs by SRB assay; format: functional; conditions: MOLT-4, 48 h, read-out: GI
HL-60(TB) [12] = assay: Growth inhibition of human HL-60(TB) cells at 10^-5 M after 48 hrs by SRB assay; format: functional; conditions: HL-60, 48 h, read-out: GI
[13] = Growth inhibition of human HOP92 cells at 10^-5 M after 48 hrs by SRB assay; format: functional; conditions: HOP-92, 48 h, read-out: GI
[14] = Growth inhibition of human EKVX cells at 10^-5 M after 48 hrs by SRB assay; format: functional; conditions: read-out: GI
NCI-H522 [15] = assay: Growth inhibition of human NCI-H522 cells at 10^-5 M after 48 hrs by SRB assay; format: functional; conditions: NCI-H522, 48 h, read-out: GI
[16] = Growth inhibition of human HCT116 cells at 10^-5 M after 48 hrs by SRB assay; format: functional; conditions: HCT-116, 48 h, read-out: GI
[17] = Growth inhibition of human HCT15 cells at 10^-5 M after 48 hrs by SRB assay; format: functional; conditions: HCT-15, 48 h, read-out: GI
MDA-MB-435 [18] = assay: Growth inhibition of human MDA-MB-435 cells at 10^-5 M after 48 hrs by SRB assay; format: functional; conditions: MDA-MB-435, 48 h, read-out: GI
Malme-3M = assay: Growth inhibition of human MALME-3M cells at 10^-5 M after 48 hrs by SRB assay; format: functional; conditions: read-out: GI
A498 [19] = assay: Growth inhibition of human A498 cells at 10^-5 M after 48 hrs by SRB assay; format: functional; conditions: A498, 48 h, read-out: GI
CAKI-1 = assay: Growth inhibition of human Caki1 cells at 10^-5 M after 48 hrs by SRB assay; format: functional; conditions: CAKI-1, 48 h, read-out: GI
[20] = Growth inhibition of human PC3 cells at 10^-5 M after 48 hrs by SRB assay; format: functional; conditions: PC-3, 48 h, read-out: GI
[21] = Growth inhibition of human SF295 cells at 10^-5 M after 48 hrs by SRB assay; format: functional; conditions: SF-295, 48 h, read-out: GI
SNB-75 [22] = assay: Growth inhibition of human SNB75 cells at 10^-5 M after 48 hrs by SRB assay; format: functional; conditions: SNB-75, 48 h, read-out: GI
MCF7 [23] = assay: Growth inhibition of human MCF7 cells at 10^-5 M after 48 hrs by SRB assay; format: functional; conditions: MCF7, 48 h, read-out: GI
T47D = assay: Growth inhibition of human T47D cells at 10^-5 M after 48 hrs by SRB assay; format: functional; conditions: Homo sapiens, T47D, 48 h; read-out: GI
HL-60(TB) [24] = assay: Cytotoxicity against human HL-60(TB) cells assessed as cell growth at 10^-5 M after 48 hrs by SRB assay; format: functional; conditions: HL-60, 48 h, read-out: Activity
NCI-H522 [25] = assay: Cytotoxicity against human NCI-H522 cells assessed as cell growth at 10^-5 M after 48 hrs by SRB assay; format: functional; conditions: NCI-H522, 48 h, read-out: Activity
MDA-MB-435 [26] = assay: Cytotoxicity against human MDA-MB-435 cells assessed as cell growth at 10^-5 M after 48 hrs by SRB assay; format: functional; conditions: MDA-MB-435, 48 h, read-out: Activity
A498 [27] = assay: Cytotoxicity against human A498 cells assessed as cell growth at 10^-5 M after 48 hrs by SRB assay; format: functional; conditions: A498, 48 h, read-out: Activity

Row | Structure (SMILES) | inhibition (Ovis aries) [%] | IC50 [1] [nM] | inhibition of growth at 10 µM [11] [%] | inhibition of growth at 10 µM (HL-60(TB) [12]) [%] | inhibition of growth at 10 µM [13] [%] | inhibition of growth at 10 µM [14] [%] | inhibition of growth at 10 µM (NCI-H522 [15]) [%] | inhibition of growth at 10 µM [16] [%] | inhibition of growth at 10 µM [17] [%] | inhibition of growth at 10 µM (MDA-MB-435 [18]) [%] | inhibition of growth at 10 µM (Malme-3M) [%] | inhibition of growth at 10 µM (A498 [19]) [%] | inhibition of growth at 10 µM (CAKI-1) [%] | inhibition of growth at 10 µM [20] [%] | inhibition of growth at 10 µM [21] [%] | inhibition of growth at 10 µM (SNB-75 [22]) [%] | inhibition of growth at 10 µM (MCF7 [23]) [%] | inhibition of growth at 10 µM (T47D) [%] | also measured
1 | COc1cc([C@@H]2c3cc4c(cc3C[C@H]3COC(=O)[C@@H]32)OCO4)cc(OC)c1OC [DESOXYPODOPHYLLOTOXIN] | 100 | 1760 |  |  |  |  |  |  |  |  |  |  |  |  |  |  |  |  | 
2 | CCOC(=O)c1cc(C(=O)c2cc(OC)c(OC)c(OC)c2)n2cccc(C#N)c12 | 69 | 12000 | 72 | 100 | 89 | 50 | 100 | 79 | 66 | 100 | 44 | 100 | 74 | 68 | 81 | 82 | 71 | 60 | GI50 (HL-60(TB) [2]): 220 nM; GI50 (K562): 222 nM; GI50 (SR): 63 nM; GI50 (NCI-H522 [3]): 142 nM; GI50 [4]: 171 nM; GI50 (KM12): 190 nM; GI50 (HT-29): 236 nM; GI50 (MDA-MB-435 [5]): 30 nM; GI50 (SK-MEL-5): 94 nM; GI50 [6]: 180 nM; GI50 (NCI/ADR-RES): 158 nM; GI50 (A498 [7]): 201 nM; GI50 [8]: 230 nM; GI50 (SNB-75 [9]): 164 nM; GI50 (MDA-MB-468): 332 nM; GI50 (MCF7 [10]): 252 nM; growth at 10 µM (HL-60(TB) [24]): -14%; growth at 10 µM (NCI-H522 [25]): -10%; growth at 10 µM (MDA-MB-435 [26]): -29%; growth at 10 µM (A498 [27]): -13%
3 | CCOC(=O)c1c(C(=O)OCC)c2cc(OC)ccn2c1C(=O)c1cc(OC)c(OC)c(OC)c1 | 57 | 90400 |  |  |  |  |  |  |  |  |  |  |  |  |  |  |  |  | 
4 | COC(=O)c1c(C(=O)OC)c2cc(N(C)C)ccn2c1C(=O)c1ccc(OC)c(OC)c1 | 9 |  | 0 | 12 | 18 | 0 | 3 | 0 | 6 | 0 | 0 | 27 | 10 | 11 | 1 | 1 | 0 | 0 | 
5 | CCOC(=O)c1cc(C(=O)c2cc(OC)c(OC)c(OC)c2Br)n2ccc(OC)cc12 | 54 | 104000 | 60 | 57 | 39 | 52 | 35 | 31 | 39 | 10 | 0 | 23 | 51 | 60 | 38 | 0 | 7 | 36 | 
6 | CCOC(=O)c1cc(C(=O)c2cc(OC)c(OC)c(OC)c2)n2cc(C)ccc12 | 73 | 33500 |  |  |  |  |  |  |  |  |  |  |  |  |  |  |  |  | 
